{"source": "patent US20050222076A1", "about": "“Composition for cell proliferation” (OTSUKA PHARMACEUTICAL CO., LTD., priority 2002, published 2005)", "test_system": "human keratinocyte", "experiment": "In vitro cultured human keratinocyte cell proliferation promoting effect (WST-1)", "type": "cell-based", "details": "primary-cultured human keratinocyte, cultured two days; AMP 0-1 w/v % combined with UMP 0.000001-0.1 w/v %; versus comparative sample without uridine monophosphate disodium set as 1; FIG. 1", "protocol": "Primary-cultured human keratinocyte (manufactured by Kurabo Industries, Ltd.) was cultured in a 10-cm petri dish, and the cultured cells were collected in the subconfluent state and then stored in a frozen state. The following experiments were conducted using those cryopreserved cells.\n1. The cryopreserved cells were dissolved in HuMediaKG2 liquid culture media (manufactured by Kurabo Industries, Ltd.), the cell concentration was adjusted to […]. 50 μl of thus obtained cells-containing solution was poured into each well of a test plate to adjust the cell concentration to 2500 cells/50 μl/well.\n2. […]\n3. […] The test samples contained solutions at various concentrations prepared by blending uridine monophosphate disodium to adenosine monophosphate disodium solutions in which the concentration of adenosine monophosphate contained in the 300 μl of the test sample was adjusted to 0, 0.0001, 0.001, 0.01, 0.1, and 1 W/V %, so that the concentration of uridine monophosphate disodium was adjusted to 0, 0.000001 (1E-06), 0.00001 (1E-05), 0.0001, 0.001, 0.01 and 0.1 w/v % as calculated based on the concentration of the uridine monophosphate.\n4. Two days after culture initiation, the proliferation of human keratinocyte cells was measured using a WST-1 reagent (manufactured by TaKaRa) based on the rise in absorbance. […]"}
{"smiles": "Nc1ncnc2c1ncn2[C@@H]1O[C@H](COP(=O)([O-])[O-])[C@@H](O)[C@H]1O.[Na+].[Na+]", "note": "[adenosine monophosphate disodium]", "values": [{"measurement": "cell proliferation promoting effect of adenosine monophosphate disodium when blended with uridine monophosphate disodium (relative ratio of number of cells, ratio of cont.)", "value": "potentiated and promoted"}]}
{"smiles": "O=c1ccn([C@@H]2O[C@H](COP(=O)([O-])[O-])[C@@H](O)[C@H]2O)c(=O)[nH]1.[Na+].[Na+]", "note": "[uridine monophosphate disodium]", "values": [{"measurement": "cell proliferation promoting effect of adenosine monophosphate disodium when blended with uridine monophosphate disodium (relative ratio of number of cells, ratio of cont.)", "value": "potentiated and promoted"}]}
